Measured values taken from patent US7795229B2, “Serum cholesterol lowering agent or preventative or therapeutic agent for atherosclerosis” (Kotobuki Pharmaceutical Co., Ltd., priority 2003, dated 2010).

| SMILES | melting point |
| --- | --- |
| O=C1[C@H](CC[C@H](O)c2ccc(F)cc2)[C@@H](c2ccc(/C=C/[C@@H]3O[C@H](CO)[C@@H](O)[C@H](O)[C@H]3O)cc2)N1c1ccc(F)cc1 [Compound 45] | 84 to 86 °C |
| O=C(O)c1ccc(N2C(=O)[C@H](CCC(=O)c3ccc(F)cc3)[C@H]2c2ccc(C[C@@H]3O[C@H](CO)[C@@H](O)[C@H](O)[C@H]3O)cc2)cc1 [Compound 30] | 102 to 104 °C |
| O=C1[C@H](CCCc2ccccc2)[C@@H](c2ccc(C[C@@H]3O[C@H](CO)[C@@H](O)[C@H](O)[C@H]3O)cc2)N1c1ccc(F)cc1 [Compound 11] | 74 to 75 °C |
| O=C1[C@H](CC[C@H](O)c2ccc(F)cc2)[C@@H](c2ccc(/C=C/COC[C@@H]3O[C@H](CO)[C@@H](O)[C@H](O)[C@H]3O)cc2)N1c1ccc(F)cc1 [Compound 51] | 65 to 67 °C |
| O=C(CC[C@H]1C(=O)N(c2ccc(F)cc2)[C@@H]1c1ccc(C[C@@H]2O[C@H](CO)[C@@H](O)[C@H](O)[C@H]2O)cc1)c1ccc(F)cc1 [Compound 26] | 78 to 80 °C |
| O=C1[C@H](CC[C@H](O)c2ccc(C[C@@H]3O[C@H](CO)[C@@H](O)[C@H](O)[C@H]3O)cc2)[C@@H](c2ccc(F)cc2)N1c1ccc(F)cc1 [Compound 39] | 126 to 128 °C |
| O=C1[C@H](CC[C@H](O)c2ccc(F)cc2)[C@@H](c2ccc(C[C@@H]3O[C@H](CO)[C@@H](O)[C@H](O)[C@H]3O)cc2)N1c1ccccc1 [Compound 23] | 104 to 106 °C |
| O=C1[C@H](CCCc2ccc(F)cc2)[C@@H](c2ccc(C[C@@H]3O[C@H](CO)[C@@H](O)[C@H](O)[C@H]3O)cc2)N1c1ccc(Cl)cc1 [Compound 4] | 76 to 78 °C |
| CC(C)(Oc1ccc(N2C(=O)[C@H](CCCc3ccc(F)cc3)[C@H]2c2ccc(C[C@@H]3O[C@H](CO)[C@@H](O)[C@H](O)[C@H]3O)cc2)cc1)C(=O)O [Compound 19] | 170 to 172 °C |
| O=C(O)c1ccc(N2C(=O)[C@H](CC[C@H](O)c3ccc(F)cc3)[C@H]2c2ccc(C[C@@H]3O[C@H](CO)[C@@H](O)[C@H](O)[C@H]3O)cc2)cc1 [Compound 29] | 148 to 150 °C |
| O=C1[C@H](CCCc2ccc(F)cc2)[C@@H](c2ccc(C[C@@H]3O[C@H](CO)[C@@H](O)[C@H](O)[C@H]3O)cc2)N1c1ccccc1 [Compound 9] | 84 to 86 °C |
| O=C1[C@H](CC[C@H](O)c2ccc(F)cc2)[C@@H](c2ccc(CCC[C@@H]3O[C@H](CO)[C@@H](O)[C@H](O)[C@H]3O)cc2)N1c1ccc(F)cc1 [Compound 48] | 81 to 83 °C |
| O=C(CC[C@H]1C(=O)N(c2ccc(F)cc2)[C@@H]1c1ccc([C@@H]2O[C@H](CO)[C@@H](O)[C@H](O)[C@H]2O)cc1)c1ccc(F)cc1 [Compound 34] | 83 to 85 °C |
| Cc1ccc(N2C(=O)[C@H](CCOc3ccc(F)cc3)[C@H]2c2ccc(C[C@@H]3O[C@H](CO)[C@@H](O)[C@H](O)[C@H]3O)cc2)cc1 [Compound 43] | 96 to 98 °C |
| COc1ccc(N2C(=O)[C@H](CCCc3ccc(F)cc3)[C@H]2c2ccc(C[C@@H]3O[C@H](COC(C)=O)[C@@H](OC(C)=O)[C@H](OC(C)=O)[C@H]3OC(C)=O)cc2)cc1 [Compound 6] | 60 to 62 °C |
| O=C1[C@H](CCCc2ccc(F)cc2)[C@@H](c2ccc(OC[C@@H]3O[C@H](CO)[C@@H](O)[C@H](O)[C@H]3O)cc2)N1c1ccc(F)cc1 [Compound 14] | 61 to 62 °C |
| Cc1ccc(N2C(=O)[C@H](CC[C@H](O)c3ccc(F)cc3)[C@H]2c2ccc(C[C@@H]3O[C@H](CO)[C@@H](O)[C@H](O)[C@H]3O)cc2)cc1 [Compound 24] | 102 to 104 °C |
| O=C1[C@H](CC[C@H](O)c2ccc(F)cc2)[C@@H](c2ccc(CCCOC[C@@H]3O[C@H](CO)[C@@H](O)[C@H](O)[C@H]3O)cc2)N1c1ccc(F)cc1 [Compound 50] | 61 to 63 °C |
| O=C(O)c1ccc(N2C(=O)[C@H](CCCc3ccc(F)cc3)[C@H]2c2ccc(C[C@@H]3O[C@H](CO)[C@@H](O)[C@H](O)[C@H]3O)cc2)cc1 [Compound 31] | 97 to 99 °C |
| O=C(O)[C@H]1O[C@@H](CCc2ccc([C@@H]3[C@@H](CC[C@H](O)c4ccc(F)cc4)C(=O)N3c3ccccc3)cc2)[C@H](O)[C@@H](O)[C@@H]1O [Compound 58] | 110 to 112 °C |
| O=C1[C@H](CC[C@H](O)c2ccc(F)cc2)[C@@H](c2ccc(/C=C/C[C@@H]3O[C@H](CO)[C@@H](O)[C@H](O)[C@H]3O)cc2)N1c1ccc(F)cc1 [Compound 47] | 72 to 74 °C |
| O=C1[C@H](CCCc2ccc(F)cc2)[C@@H](c2ccc(C[C@@H]3O[C@H](CO)[C@@H](O)[C@H](O)[C@H]3O)cc2)N1c1ccc(F)cc1 [Compound 25] | 67 to 69 °C |
| Cc1ccc(N2C(=O)[C@H](CC[C@H](O)c3ccc(F)cc3)[C@H]2c2ccc([C@@H]3O[C@H](CO)[C@@H](O)[C@H](O)[C@H]3O)cc2)cc1 [Compound 36] | 79 to 81 °C |
| Cc1ccc(N2C(=O)[C@H](CCCc3ccc(F)cc3)[C@H]2c2ccc(C[C@@H]3O[C@H](CO)[C@@H](O)[C@H](O)[C@H]3O)cc2)cc1 [Compound 7] | 80 to 82 °C |

| SMILES | melting point |
| --- | --- |
| CCOC(=O)c1ccc(N2C(=O)[C@H](CC[C@H](O)c3ccc(F)cc3)[C@H]2c2ccc(C[C@@H]3O[C@H](CO)[C@@H](O)[C@H](O)[C@H]3O)cc2)cc1 [Compound 42] | 56 to 58 °C |
| O=C(O)[C@H]1O[C@@H](Cc2ccc([C@@H]3[C@@H](CCCc4ccc(F)cc4)C(=O)N3c3ccc(F)cc3)cc2)[C@H](O)[C@@H](O)[C@@H]1O [Compound 17] | 105 to 106 °C |
| O=C1[C@H](CC[C@H](O)c2ccc(F)cc2)[C@@H](c2ccc(CCCCC[C@@H]3O[C@H](CO)[C@@H](O)[C@H](O)[C@H]3O)cc2)N1c1ccc(F)cc1 [Compound 55] | 66 to 68 °C |
| O=C1[C@H](CC[C@H](O)c2ccc(F)cc2)[C@@H](c2ccc(CC[C@@H]3O[C@H](CO)[C@@H](O)[C@H](O)[C@H]3O)cc2)N1c1ccc(F)cc1 [Compound 46] | 153 to 155 °C |
| O=C1[C@H](CCCc2ccccc2)[C@@H](c2ccc(C[C@@H]3O[C@H](CO)[C@@H](O)[C@H](O)[C@H]3O)cc2)N1c1ccccc1 [Compound 44] | 84 to 86 °C |
| O=C1[C@H](CC[C@H](O)c2ccc(F)cc2)[C@@H](c2ccc(/C=C/CC[C@@H]3O[C@H](CO)[C@@H](O)[C@H](O)[C@H]3O)cc2)N1c1ccc(F)cc1 [Compound 52] | 79 to 81 °C |
| O=C1[C@H](CCCc2ccc(F)cc2)[C@@H](c2ccc(C3O[C@H](CO)[C@@H](O)[C@H](O)[C@H]3O)cc2)N1c1ccc(F)cc1 (some centres unmarked) [Compound 1] | 89 to 90 °C |
| CCOC(=O)C(C)(C)Oc1ccc(N2C(=O)[C@H](CCCc3ccc(C)cc3)[C@H]2c2ccc(C[C@@H]3O[C@H](CO)[C@@H](O)[C@H](O)[C@H]3O)cc2)cc1 [Compound 20] | 76 to 78 °C |
| O=C1[C@H](CC[C@H](O)c2ccc(F)cc2)[C@@H](c2ccc(C[C@@H]3O[C@H](CO)[C@@H](O)[C@H](O)[C@H]3O)cc2)N1c1ccc(F)cc1 [Compound 22] | 115 to 117 °C |
| O=C1[C@H](CCOc2ccc(F)cc2)[C@@H](c2ccc(OC[C@@H]3O[C@H](CO)[C@@H](O)[C@H](O)[C@H]3O)cc2)N1c1ccc(F)cc1 [Compound 15] | 64 to 65 °C |
| CC(=O)OC[C@H]1O[C@@H](Cc2ccc([C@@H]3[C@@H](CCOc4ccc(F)cc4)C(=O)N3c3ccc(F)cc3)cc2)[C@H](OC(C)=O)[C@@H](OC(C)=O)[C@@H]1OC(C)=O [Compound 13] | 64 to 66 °C |
| CC(=O)OC[C@H]1O[C@@H](Cc2ccc([C@@H]3[C@@H](CCCc4ccc(F)cc4)C(=O)N3c3ccc(C)cc3)cc2)[C@H](OC(C)=O)[C@@H](OC(C)=O)[C@@H]1OC(C)=O [Compound 8] | 56 to 58 °C |
| CC(=O)OC[C@H]1O[C@@H](Cc2ccc([C@@H]3[C@@H](CCCc4ccc(F)cc4)C(=O)N3c3ccc(F)cc3)cc2)[C@H](OC(C)=O)[C@@H](OC(C)=O)[C@@H]1OC(C)=O [Compound 3] | 56 to 58 °C |
| O=C1[C@H](CC[C@H](O)c2ccc(F)cc2)[C@@H](c2ccc(CCCC[C@@H]3O[C@H](CO)[C@@H](O)[C@H](O)[C@H]3O)cc2)N1c1ccc(F)cc1 [Compound 53] | 81 to 83 °C |
| O=C(CC[C@H]1C(=O)N(c2ccccc2)[C@@H]1c1ccc(C[C@@H]2O[C@H](CO)[C@@H](O)[C@H](O)[C@H]2O)cc1)c1ccc(F)cc1 [Compound 27] | 104 to 106 °C |
| O=C1[C@H](CCCc2ccc(F)cc2)[C@@H](c2ccc(OC[C@@H]3O[C@H](CO)[C@@H](O)[C@H](O)[C@H]3O)cc2)N1Cc1ccccc1 [Compound 16] | 73 to 75 °C |
| O=C(O)[C@H]1O[C@@H](Cc2ccc([C@@H]3[C@@H](CC[C@H](O)c4ccc(F)cc4)C(=O)N3c3ccc(F)cc3)cc2)[C@H](O)[C@@H](O)[C@@H]1O [Compound 33] | 82 to 84 °C |
| O=C1[C@H](CCOc2ccc(F)cc2)[C@@H](c2ccc(C[C@@H]3O[C@H](CO)[C@@H](O)[C@H](O)[C@H]3O)cc2)N1c1ccc(F)cc1 [Compound 12] | 65 to 67 °C |
| Cc1ccc(N2C(=O)[C@H](CC[C@H](O)c3ccc(F)cc3)[C@H]2c2ccc(CC[C@@H]3O[C@H](CO)[C@@H](O)[C@H](O)[C@H]3O)cc2)cc1 [Compound 57] | 116 to 118 °C |
| Cc1ccc(CCC[C@H]2C(=O)N(c3ccc(OC(C)(C)C(=O)O)cc3)[C@@H]2c2ccc(C[C@@H]3O[C@H](CO)[C@@H](O)[C@H](O)[C@H]3O)cc2)cc1 [Compound 21] | 161 to 162 °C |
| O=C1[C@H](CC[C@H](O)c2ccc([C@H]3O[C@@H](CO)[C@H](O)[C@@H](O)[C@@H]3O)cc2)C(c2ccc(F)cc2)N1c1ccc(F)cc1 (some centres unmarked) [Compound 49] | 111 to 113 °C |
| CCOC(=O)C(C)(C)Oc1ccc(N2C(=O)[C@H](CCCc3ccc(F)cc3)[C@H]2c2ccc(C[C@@H]3O[C@H](CO)[C@@H](O)[C@H](O)[C@H]3O)cc2)cc1 [Compound 18] | 73 to 74 °C |
| O=C1[C@H](CC[C@H](O)c2ccccc2)[C@@H](c2ccc(C[C@@H]3O[C@H](CO)[C@@H](O)[C@H](O)[C@H]3O)cc2)N1c1ccccc1 [Compound 41] | 110 to 112 °C |
